Data: PubChem BioAssay AID2060488 (Molecular Pharmacology Branch, DTP, NCI, 2025)
Several values for one entry are separate records, joined by “and”; a condition that tells them apart may be missing. Equal entries are not always repeated.

Tested on: 966289-007-R4-J1-PDC complex spheroid viability
Assay: Anticancer human tumor 966289-007-R4-J1-PDC patient-derived pancreatic adenocarcinoma cell line growth inhibition [GQUAD]
Settings: for viability, T/C: stronger effect = lower value
Source text: DNA G-quadruplex Stabilizer Agents in Combinations in Complex Spheroids
A high-throughput screen of multi-cell type tumor spheroids was designed to identify active combinations of DNA G-quadruplex stabilizer agents and targeted small molecules. Complex spheroids include a stromal component modeled by human endothelial cells (HUVEC) and fibroblasts modeled by human mesenchymal stem cells (MSCs). The concentration ranges selected for each drug and investigational agent were based upon clinically achievable concentrations if the clinical Cmax of the agent was known.
Compounds. The drugs and investigational agents: pidnarulex (CX-5461; NSC782164), APTO-253 (NSC789042), BRACO-19 (NSC847499), peposertib (NSC802822), ceralasertib (NSC780249), elimusertib (NSC800525), camonsertib (NSC841442), AZD-1390 (NSC803789), olaparib (NSC753686), talazoparib (NSC767125), ART-558 (NSC835418), sotorasib (NSC818433), MRTX-1133 (NSC836407), SN-38 (NSC673596), topotecan (NSC609699), etoposide (NSC141540), doxorubicin (NSC123127), gemcitabine (NSC613327), 5-fluorouracil (NSC19893), paclitaxel (NSC125973), vemurafenib (NSC761431), panobinostat (NSC761190), R-306465 (JNJ-16241199; NSC773264), adavosertib (NSC754352), TP-3654 (NSC805149), carboplatin (NSC241240), KSQ-4279 (NSC840948), and staurosporine (NSC755774) were obtained from the National Cancer Institute (NCI) Developmental Therapeutics Program Chemical Repository (34). The FDA-approved anticancer drug set is available from the NCI Developmental Therapeutics Program. […] The stock solutions were prepared in dimethyl sulfoxide (DMSO, Sigma-Aldrich, St. Louis, MO, cat. D2650) at 800-fold the tested concentration and stored at -70 degrees C prior to their use. All drugs and investigational agents were tested over a range starting from a high concentration at or near the clinical Cmax and decreasing in half-log increments. If the clinical Cmax for an agent had not been determined, the highest concentration tested was 10 microM.
2.3 Cell Culture. All cells were maintained in an incubator at 37 degrees C and 5% CO2 with 95% humidity. The PDC lines were cultured according to standard operating procedures established by the NCI PDMR. All PDCs were thawed and cultured in Matrigel-coated flasks prepared with a working solution of 1X Ham's F-12 nutrient mix, without supplementation (Invitrogen, cat. 11765054), 100 U/mL penicillin-streptomycin (Invitrogen, cat. 15140122), and 2.5% Matrigel (Corning Inc., cat. 354248) for the first three passages. The 857933-349-R-J2-PDC line was cultured in 6C/Colon 1B media, which includes advanced DMEM/F-12 (Thermo Fisher Scientific, cat. 12634028), 10 mM HEPES (Thermo Fisher Scientific, cat. 15630080), 1X GlutaMAX supplement (Thermo Fisher Scientific, cat. 35050061), 0.1 mg/mL primocin (InvivoGen, cat. ant-pm-2), 10% defined fetal bovine serum, heat inactivated (HyClone Laboratories Inc., cat. SH30070.03HI), 50% L-WRN conditioned media (ATCC, cat. CRL-3276), 1.25 mM N-Acetyl-L-cysteine (Sigma-Aldrich, cat. A9165), 10 mM nicotinamide (Sigma-Aldrich, cat. N0636), 1X B-27 supplement (Thermo Fisher Scientific, cat. 17504044), 1X N-2 supplement (Thermo Fisher Scientific, cat. 17502048), 10 microM Y-27632 dihydrochloride (Tocris Bioscience, cat. 1254), and 50 ng/mL human EGF recombinant protein (Thermo Fisher Scientific, cat. PHG0311). The 485176-168-R4-J1-PDC line was cultured in Panc media, which includes all 6C/Colon 1B media components plus 100 ng/mL human FGF-10 (Thermo Fisher Scientific, cat. 100-26), 500 nM SB-431542 (Selleckchem, cat. S1067), and gastrin (Tocris, cat. 3006).
[…]
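Further: spheroids exposed to the agents for seven days before readout.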
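Wherever viability, T/C is given: percent viability relative to DMSO vehicle control wells taken as 100%.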

CC(C)(O)C1CCC(Nc2ccc3ncc(-c4cccc(C(F)(F)F)c4)n3n2)CC1 (centres undefined) + Cc1[nH]c2ccc(F)cc2c1-c1nc2c3cccnc3c3ncccc3c2[nH]1
IC50 (curve of first compound, second compound 0.0316 µM): > 10000 nM | IC50 (curve of first compound, second compound 0.1 µM): 3110 nM | IC50 (curve of first compound, second compound 0.316 µM): 2960 nM | IC50 (curve of first compound, second compound 1 µM): 2470 nM | IC50 (curve of first compound, second compound 3.16 µM): 2500 nM | IC50 (curve of first compound, second compound 10 µM): 2370 nM | viability, T/C (second compound 0.0316 µM, first compound 0.0316 µM): 108% | viability, T/C (second compound 0.0316 µM, first compound 0.1 µM): 105% | viability, T/C (second compound 0.0316 µM, first compound 0.316 µM): 109% | viability, T/C (second compound 0.0316 µM, first compound 1 µM): 89% | viability, T/C (second compound 0.0316 µM, first compound 3.16 µM): 71.7% | viability, T/C (second compound 0.0316 µM, first compound 10 µM): 55.3% | viability, T/C (second compound 0.1 µM, first compound 0.0316 µM): 104% | viability, T/C (second compound 0.1 µM, first compound 0.1 µM): 100% | viability, T/C (second compound 0.1 µM, first compound 0.316 µM): 99.8% | viability, T/C (second compound 0.1 µM, first compound 1 µM): 93.2% | viability, T/C (second compound 0.1 µM, first compound 3.16 µM): 47.5% | viability, T/C (second compound 0.1 µM, first compound 10 µM): 51.3% | viability, T/C (second compound 0.316 µM, first compound 0.0316 µM): 101% | viability, T/C (second compound 0.316 µM, first compound 0.1 µM): 111% | viability, T/C (second compound 0.316 µM, first compound 0.316 µM): 102% | viability, T/C (second compound 0.316 µM, first compound 1 µM): 105% | viability, T/C (second compound 0.316 µM, first compound 3.16 µM): 40.7% | viability, T/C (second compound 0.316 µM, first compound 10 µM): 52.6% | viability, T/C (second compound 1 µM, first compound 0.0316 µM): 106% | viability, T/C (second compound 1 µM, first compound 0.1 µM): 106% | viability, T/C (second compound 1 µM, first compound 0.316 µM): 98.9% | viability, T/C (second compound 1 µM, first compound 1 µM): 110% | viability, T/C (second compound 1 µM, first compound 3.16 µM): 28.9% | viability, T/C (second compound 1 µM, first compound 10 µM): 41% | viability, T/C (second compound 3.16 µM, first compound 0.0316 µM): 104% | viability, T/C (second compound 3.16 µM, first compound 0.1 µM): 107% | viability, T/C (second compound 3.16 µM, first compound 0.316 µM): 113% | viability, T/C (second compound 3.16 µM, first compound 1 µM): 113% | viability, T/C (second compound 3.16 µM, first compound 3.16 µM): 22.5% | viability, T/C (second compound 3.16 µM, first compound 10 µM): 47.1% | viability, T/C (second compound 10 µM, first compound 0.0316 µM): 97.1% | viability, T/C (second compound 10 µM, first compound 0.1 µM): 111% | viability, T/C (second compound 10 µM, first compound 0.316 µM): 112% | viability, T/C (second compound 10 µM, first compound 1 µM): 109% | viability, T/C (second compound 10 µM, first compound 3.16 µM): 26.2% | viability, T/C (second compound 10 µM, first compound 10 µM): 35.4%

Cn1ncnc1[C@H]1c2n[nH]c(=O)c3cc(F)cc(c23)N[C@@H]1c1ccc(F)cc1
viability, T/C (compound 0.000999 µM): 105% and 99.3% and 95.6% | viability, T/C (compound 0.00316 µM): 91.2% and 98.8% and 98.2% | viability, T/C (compound 0.00999 µM): 113% and 105% and 112% | viability, T/C (compound 0.0316 µM): 92.4% and 104% and 99.6% | viability, T/C (compound 0.0999 µM): 48.8% and 72.8% and 46.1% | viability, T/C (compound 0.316 µM): 22.8% and 22.4% and 18% | IC50 (curve of compound): 96.1 nM and 168 nM and 91.9 nM

Cc1[nH]c2ccccc2c1CCNCc1ccc(/C=C/C(=O)NO)cc1
viability, T/C (compound 0.000999 µM): 110% and 92.2% and 99.7% | viability, T/C (compound 0.00316 µM): 100% and 103% and 113% | viability, T/C (compound 0.00999 µM): 104% and 91% and 101% | viability, T/C (compound 0.0316 µM): 100% and 97.8% and 99.5% | viability, T/C (compound 0.0999 µM): 31.1% and 30.7% and 17.7% | viability, T/C (compound 0.316 µM): 4.6% and 4.59% and 3.46% | IC50 (curve of compound): 73 nM and 71.1 nM and 63.4 nM

CCc1c2c(nc3ccc(O)cc13)-c1cc3c(c(=O)n1C2)COC(=O)[C@]3(O)CC
viability, T/C (compound 0.000999 µM): 21.8% and 23.1% and 26.9% | viability, T/C (compound 0.00316 µM): 0.79% and 0.89% and 0.66% | viability, T/C (compound 0.00999 µM): 0.67% and 0.66% and 0.5% | viability, T/C (compound 0.0316 µM): 0.8% and 0.6% and 0.43% | viability, T/C (compound 0.0999 µM): 0.53% and 0.49% and 0.38% | viability, T/C (compound 0.316 µM): 0.45% and 0.44% and 0.36% | IC50 (curve of compound): < 0.999 nM

COc1cccc2c1C(=O)c1c(O)c3c(c(O)c1C2=O)CC(O)(C(=O)CO)CC3OC1CC(N)C(O)C(C)O1 (centres undefined)
viability, T/C (compound 0.0316 µM): 112% and 114% and 102% | viability, T/C (compound 0.1 µM): 12.9% and 19.6% and 8.98% | viability, T/C (compound 0.316 µM): 3.19% and 2.75% and 1.72% | viability, T/C (compound 1 µM): 0.71% and 0.91% and 0.56% | viability, T/C (compound 3.16 µM): 0.27% and 0.41% and 0.16% | viability, T/C (compound 10 µM): 0.4% and 0.47% and 0.34% | IC50 (curve of compound): 65 nM and 69 nM and 60.2 nM

O=C(c1cc(Cc2n[nH]c(=O)c3ccccc23)ccc1F)N1CCN(C(=O)C2CC2)CC1
viability, T/C (compound 0.0316 µM): 111% and 99.1% and 104% | viability, T/C (compound 0.1 µM): 98.8% and 108% and 98.4% | viability, T/C (compound 0.316 µM): 109% and 105% and 111% | viability, T/C (compound 1 µM): 106% and 108% and 112% | viability, T/C (compound 3.16 µM): 67.5% and 82.8% and 61.1% | viability, T/C (compound 10 µM): 11.2% and 10.4% and 14.9% | IC50 (curve of compound): 4520 nM and 5320 nM and 4180 nM

CC1COCCN1c1cc(C2(S(C)(=N)=O)CC2)nc(-c2ccnc3[nH]ccc23)n1 (centres undefined)
viability, T/C (compound 0.0316 µM): 105% and 101% and 96.9% | viability, T/C (compound 0.1 µM): 104% and 98.3% and 105% | viability, T/C (compound 0.316 µM): 109% and 99.3% and 108% | viability, T/C (compound 1 µM): 95.2% and 103% and 108% | viability, T/C (compound 3.16 µM): 45.6% and 71.7% and 117% | viability, T/C (compound 10 µM): 6.26% and 10.7% and 7.26% | IC50 (curve of compound): 2850 nM and 4770 nM and 6110 nM
